Measurements published in patent US6060257A, “Tumor rejection antigens presented by HLA-B44 molecules, and uses thereof” (Ludwig Institute for Cancer Research, priority 1996, dated 2000).

Target: T1, HLA-B*4402 (Homo sapiens, UniProt P01889, A223V/A65T/A93T/A95T/D201E/D98Y/E176V/E187L/E204Q/E69K/G107R/H137Y/K202T/L105A/L119I/N104T/N87E/Q56L/Q94N/R106L/R155S/R180D/S101N/S121R/S35A/S48T/T118I/V36M/W191S/Y140D/Y91S)
T1 construct: expressed in transfected cells; host or cells: C1R cells (MHC class I negative, EBV-transformed lymphoblastoid)
Assay: Competitive assay: inhibition of CTL 159/5 lysis of C1R-B*4402 cells sensitized with SEQ ID NO: 18
Type: cell-based
Conditions: C1R-B44 cells (B*4402 and B*4403 transfectants)

In the case of “Gin Glu Glu Gly Pro Ser Thr Phe [SEQ ID NO: 20]”, the “inhibition of lysis of C1R-B44 cells (indicates binding to HLA-B44 molecules)” value is reported as “did inhibit lysis”.
